Results reported in patent publication US20130017265A1, “PARTICLES FOR MULTIPLE AGENT DELIVERY” (MASSACHUSETTS INSTITUTE OF TECHNOLOGY, priority 2009, published 2013).
pIC50: −log10 of the molar value.

Key:
PC3 cells = experiment: MTT cytotoxicity assay, PC3 cells; format: cell-based, human; conditions: for pIC50: MTT, 12 hours treatment, further 48 hours, [Pt] = 25 * [Doce]
Method: (§1) The ability of the targeted drug releasing construct nanoparticles to promote cell death was determined using the MTT assay using human prostate cancer LNCaP and PC3 cells and compared against the standard compounds cisplatin and the Pt(IV)-monosuccinate prodrug. Human prostate cancer LNCaP and PC3 cells were obtained from the ATCC. […] The cells were incubated at 37° C. in 5% CO2 in RPMI growth medium supplemented with 10% fetal bovine serum and 1% penicillin/streptomycin. The cells were passaged every 3 to 4 days and restarted from the frozen stock upon reaching passage number 20. Cytotoxic activity of the constructs was evaluated using the MTT assay. Solutions of the different constructs were freshly prepared in sterile PBS before use. All platinum constructs were quantified by atomic absorption spectroscopy. LNCaP and PC3 cells were seeded on a 96-well plate in 100 μL RPMI media and incubated for 24 hours.
(§2) The cells were then treated with different constructs at varying concentrations and incubated for 12 hours at 37° C. Fresh medium was replaced after 12 hours incubation with nanoparticles, and the cells were incubated for a further 48 hours. The cells were then treated with 20 μL of 3-(4,5-dimethylthiazol-2-yl)-2,5-diphenyltetrazolium bromide (MTT) (5 mg/mL in PBS) and incubated for 5 hours. The medium was removed, the cells were lysed by adding 100 μL of DMSO, and the absorbance of the purple formazan was recorded at 550 nm using a microplate spectrophotometer. Each sample was assayed in triplicate in three independent experiments for each cell line.

LNCaP cells = experiment: MTT cytotoxicity assay, LNCaP cells; format: cell-based, human; conditions: for pIC50: MTT, 12 hours treatment, further 48 hours, [Pt] = 25 * [Doce]
Method: as §1, §2

| Molecule | pIC50 (PC3 cells) | pIC50 (LNCaP cells) | effect on viability (PC3 cells; PC3 cells, compared with cisplatin, PolyPt-NP, PolyPt-NP-Apt) | effect on viability (LNCaP cells; LNCaP cells, compared with cisplatin, PolyPt-NP, PolyPt-NP-Apt) |
| --- | --- | --- | --- | --- |
| N.N.[Cl][Pt][Cl] [Cisplatin] | 5.00 | < 5.30 |  |  |
| c,c,t[Pt(NH3)Cl2(OH)(succinate)] [Pt-Monosuccinate] | 4.44 | 3.97 | least effect on viability | least effect on viability |
